Where “and” joins values, the source holds several entries; their conditions need not be identical. Identical values can stand only once.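 A five-concentration, 48-hour dose response in 96-well plates underlies each endpoint, interpolated linearly between surrounding concentrations. At the GI50, growth is halved. TGI denotes the concentration required for complete inhibition of growth.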

The source of these data is PubChem BioAssay (NCI).

Among the test systems are ACHN renal; RPMI-8226 leukemia; NCI-H460 lung; OVCAR-4 ovarian; SNB-75 CNS; UO-31 renal; SF-295 CNS; OVCAR-5 ovarian; HCC-2998 colon; MALME-3M melanoma.
Experiment in all cases: NCI tumour cell line growth inhibition, 48 h

For `COc1ccc2c(c1)CCC1C2CC[C@@]2(C)C1CC[C@@H]2NC(=O)Cc1ccc(O)c(O)c1` (stereo not given in full), the GI50 in the test on ACHN renal is 6.01 µM; in the test with RPMI-8226 leukemia it was 3.68 µM; in the test with NCI-H460 lung it was 12.3 µM; in the test on OVCAR-4 ovarian, 4.26 µM; in the test on SNB-75 CNS, 3.44 µM; in the test with UO-31 renal, 3.56 µM. Also, the GI50 in the test on SF-295 CNS is 13.4 µM; in the test on OVCAR-5 ovarian, 19.8 µM; with HCC-2998 colon, 13.4 µM; in the test on MALME-3M melanoma it was 9.13 µM. Also, the TGI is 18.9 µM in the test on ACHN renal; more than 100 µM with RPMI-8226 leukemia; 31.9 µM with NCI-H460 lung; 18.6 µM in the test on OVCAR-4 ovarian; 12.5 µM in the test with SNB-75 CNS; 15.2 µM with UO-31 renal. Moreover, the TGI turned out to be 32.1 µM in the test on SF-295 CNS, 37.7 µM in the test with OVCAR-5 ovarian, 28.2 µM in the test with HCC-2998 colon and 41 µM with MALME-3M melanoma.
Turning to `CC1=C(C#N)C23C(=O)N(c4ccccc4)C(=O)C2=C(O)C=CC3(O)N1Cc1ccc(Cl)cc1Cl` (stereo not given), the GI50 in the test with ACHN renal is 12.6 µM; in the test with RPMI-8226 leukemia, 1.63 µM; in the test with NCI-H460 lung, 3.09 µM; in the test on OVCAR-4 ovarian, 6.36 µM; with SNB-75 CNS, 4.09 µM; in the test on UO-31 renal, 5.42 µM. The GI50 is 1.32 µM with SF-295 CNS, 5 µM with OVCAR-5 ovarian, 1.81 µM in the test with HCC-2998 colon and 3.14 µM in the test on MALME-3M melanoma. Moreover, the TGI with ACHN renal came to 25.2 µM; in the test on RPMI-8226 leukemia it was 4.22 µM; with NCI-H460 lung, 12.3 µM; in the test on OVCAR-4 ovarian, 19.6 µM; in the test with SNB-75 CNS it was 16.7 µM; with UO-31 renal, 19.6 µM. Besides, the TGI stood at 5.64 µM in the test with SF-295 CNS, 23.4 µM in the test on OVCAR-5 ovarian, 3.82 µM in the test on HCC-2998 colon and 9.95 µM in the test on MALME-3M melanoma.
As for `O=C1c2ccccc2-c2c3c(cc4ccnc1c24)OCO3`, the TGI in the test on ACHN renal is 24 µM and 29.3 µM; in the test on RPMI-8226 leukemia, 29.3 µM and 54.4 µM; with NCI-H460 lung, 19.6 µM and 16.4 µM; in the test with OVCAR-4 ovarian it was 69.7 µM and > 100 µM; in the test with SNB-75 CNS, 26.3 µM and 21.1 µM; in the test on UO-31 renal, 23.9 µM and 14.8 µM. Further, the TGI was 33.6 µM and 48.4 µM with SF-295 CNS; 37.8 µM and 57.6 µM in the test on OVCAR-5 ovarian; 60.1 µM in the test with HCC-2998 colon; 11 µM and 15.6 µM with MALME-3M melanoma.
For `CCCc1nn(C)c2c(=O)[nH]c(-c3cc(S(=O)(=O)N4CCN(C)CC4)ccc3OCC)nc12`, the GI50 in the test with ACHN renal was more than 100 µM; in the test on RPMI-8226 leukemia, more than 100 µM; in the test with NCI-H460 lung, more than 100 µM; in the test with OVCAR-4 ovarian, more than 100 µM; in the test on SNB-75 CNS, 53.2 µM; with UO-31 renal, more than 100 µM. In addition, the GI50 in the test on SF-295 CNS, in the test on OVCAR-5 ovarian, with HCC-2998 colon and in the test on MALME-3M melanoma was more than 100 µM each time. Further, the TGI in the test with ACHN renal, with RPMI-8226 leukemia, in the test on NCI-H460 lung, in the test with OVCAR-4 ovarian, with SNB-75 CNS and with UO-31 renal was more than 100 µM in each case. Further, the TGI in the test with SF-295 CNS, in the test on OVCAR-5 ovarian, in the test on HCC-2998 colon and in the test on MALME-3M melanoma was more than 100 µM throughout.
For the compound `NCCCCC(NC(=O)C(N)CCCN=C(N)N)C(=O)NC(CCCCN)C(=O)NC(CCCN=C(N)N)C(=O)NC(CCCN=C(N)N)C(=O)NC(CCC(N)=O)C(=O)NC(CCCN=C(N)N)C(=O)NC(CCCN=C(N)N)C(=O)NC(CCCN=C(N)N)C(=O)NCC(=O)NCC(=O)O` (stereo not given), the GI50 with ACHN renal, with RPMI-8226 leukemia, in the test with NCI-H460 lung, with OVCAR-4 ovarian, with SNB-75 CNS and in the test on UO-31 renal was more than 50 µM in each case. The GI50 in the test on SF-295 CNS, with OVCAR-5 ovarian, in the test with HCC-2998 colon and with MALME-3M melanoma was more than 50 µM each time. Also, the TGI in the test on ACHN renal, in the test with RPMI-8226 leukemia, in the test on NCI-H460 lung, in the test on OVCAR-4 ovarian, in the test on SNB-75 CNS and in the test on UO-31 renal was more than 50 µM each time. The TGI with SF-295 CNS, in the test on OVCAR-5 ovarian, in the test on HCC-2998 colon and in the test on MALME-3M melanoma was more than 50 µM each time.
On to `Cc1cc2c(F)c(Oc3ncnc(Nc4ccc(N5C[C@@H](C)N[C@@H](C)C5)cc4)c3C#N)cc(F)c2[nH]1`, for which the GI50 with ACHN renal was 2.05 µM; in the test on RPMI-8226 leukemia, 1.72 µM; in the test on NCI-H460 lung it was 2.06 µM; in the test with OVCAR-4 ovarian it was 1.22 µM; in the test on SNB-75 CNS, 1.1 µM; with UO-31 renal, 1.1 µM. Moreover, the GI50 is 1.95 µM in the test with SF-295 CNS, 2.8 µM in the test on OVCAR-5 ovarian, 1.97 µM with HCC-2998 colon and 1.61 µM in the test with MALME-3M melanoma. For the same compound, the TGI in the test on ACHN renal came to 4.21 µM; in the test with RPMI-8226 leukemia, 4.33 µM; with NCI-H460 lung, 4.37 µM; in the test with OVCAR-4 ovarian, 6.04 µM; in the test on SNB-75 CNS, 3.18 µM; with UO-31 renal, 3.39 µM. Also, the TGI turned out to be 3.94 µM in the test with SF-295 CNS, 8.68 µM with OVCAR-5 ovarian, 4.14 µM in the test with HCC-2998 colon and 3.48 µM in the test on MALME-3M melanoma.
As for `C[C@@H]1C[C@H](N)C[C@H](c2ccncc2NC(=O)c2ccc(F)c(-c3c(F)cccc3F)n2)C1`, the GI50 in the test with ACHN renal was 12.1 µM and > 10 µM; in the test with RPMI-8226 leukemia it was 0.592 µM and 0.939 µM; in the test on NCI-H460 lung, 13.7 µM and > 10 µM; with OVCAR-4 ovarian, 9.39 µM and > 10 µM; in the test with SNB-75 CNS it was 2.55 µM and 4.3 µM; in the test on UO-31 renal, 3.65 µM and 1.28 µM. In addition, the GI50 in the test with SF-295 CNS was 12.6 µM and > 10 µM; in the test on OVCAR-5 ovarian it was 12.3 µM and > 10 µM; in the test on HCC-2998 colon, 3.42 µM and 4.16 µM; in the test on MALME-3M melanoma, 10.5 µM and > 10 µM. Further, the TGI in the test on ACHN renal is 24.5 µM and > 10 µM; in the test with RPMI-8226 leukemia, 11.4 µM and > 10 µM; with NCI-H460 lung it was 28.7 µM and > 10 µM; in the test with OVCAR-4 ovarian, 22 µM and > 10 µM; with SNB-75 CNS, 18.2 µM and > 10 µM; in the test on UO-31 renal, 18.6 µM and > 10 µM. For the same compound, the TGI in the test with SF-295 CNS was 25.8 µM and > 10 µM; with OVCAR-5 ovarian, 25.9 µM and > 10 µM; in the test on HCC-2998 colon, 18 µM and > 10 µM; in the test on MALME-3M melanoma it was 24.3 µM and > 10 µM.
